{"source": "ChEMBL document CHEMBL3244263", "about": "“Derivatives of 1,2,3,11a-tetrahydro-5H-pyrrolo[2,1-c][1,4]benzodiazepine-5,11(10H)-dione as anxiolytic agents” (J Med Chem, 1978)", "key": {"Rattus norvegicus [1]": {"species": "Rattus norvegicus", "assay": "Drug metabolism in rat treated with 10-methyl-2,3-dihydro-1H-benzo[e]pyrrolo[1,2-a][1,4]diazepine-5,11(10H,11aH)-dione", "format": "ADME, organism-based", "conditions": "in vivo"}, "Rattus norvegicus [2]": {"species": "Rattus norvegicus", "assay": "Drug metabolism in rat assessed as dihydroxylated product formation", "format": "ADME, organism-based", "conditions": "in vivo"}, "Rattus norvegicus [3]": {"species": "Rattus norvegicus", "assay": "Drug metabolism in rat assessed as monohydroxylated product formation", "format": "ADME, organism-based", "conditions": "in vivo"}, "Rattus norvegicus [4]": {"species": "Rattus norvegicus", "assay": "Drug metabolism in rat assessed as 2,3-dihydro-1H-benzo[e]pyrrolo[1,2-a][1,4]diazepine-5,11(10H,11aH)-dione formation", "format": "ADME, organism-based", "conditions": "in vivo"}, "Rattus norvegicus [5]": {"system": "Rattus norvegicus", "assay": "Anxiolytic activity in po dosed rat assessed as protection against pentylenetetrazole-induced seizures administered in 2% starch", "format": "functional"}, "Rattus norvegicus [6]": {"species": "Rattus norvegicus", "assay": "Toxicity in rat assessed as depression", "format": "organism-based", "conditions": "in vivo"}, "Rattus norvegicus [7]": {"species": "Rattus norvegicus", "assay": "Drug metabolism in rat assessed as 3,11a-dihydroxy-10-methyl-2,3-dihydro-1H-benzo[e]pyrrolo[1,2-a][1,4]diazepine-5,11(10H,11aH)-dione formation by GC-MS/NMR analysis", "format": "ADME, organism-based", "conditions": "in vivo"}, "Rattus norvegicus [8]": {"species": "Rattus norvegicus", "assay": "Drug metabolism in rat assessed as aliphatic hydroxylated product formation", "format": "ADME, organism-based", "conditions": "in vivo"}, "Homo sapiens": {"species": "Homo sapiens", "assay": "Anxiolytic activity in human", "format": "functional, organism-based"}, "Squirrel monkey": {"system": "Squirrel monkey", "assay": "Anxiolytic activity in squirrel monkey by conflict responding test", "format": "functional, organism-based", "conditions": "Saimiri sciureus"}, "Mus musculus": {"species": "Mus musculus", "assay": "Anxiolytic activity in mouse assessed as suppression of pentylenetetrazole-induced convulsion", "format": "functional, organism-based"}, "Canis familiaris": {"species": "Canis familiaris", "assay": "Anxiolytic activity in dog assessed as suppression of pentylenetetrazole-induced convulsion", "format": "functional, organism-based", "conditions": "Canis lupus familiaris"}, "Rattus norvegicus [9]": {"species": "Rattus norvegicus", "assay": "Anxiolytic activity in thirsty rat by increased conflict responding test", "format": "functional, organism-based"}, "[10]": {"conditions": "Rattus norvegicus, po, read-out: ED50"}}, "note": "Active and inactive are the calls of the source. The calls are words filed in the database; no cut-off is given here.", "data": [{"smiles": "CN1C(=O)C2(O)CCC(O)N2C(=O)c2ccccc21", "note": "(configuration not stated)", "values": [{"measurement": "Drug metabolism", "setting": "Rattus norvegicus [1]", "value": "metabolite_detected"}]}, {"smiles": "CN1C(=O)C2CCCN2C(=O)c2ccccc21", "note": "(single isomer, unassigned; (+)) [listing 1 of 2 here]", "values": [{"measurement": "Drug metabolism", "setting": "Rattus norvegicus [2]", "value": "metabolite_detected"}, {"measurement": "Drug metabolism", "setting": "Rattus norvegicus [3]", "value": "metabolite_detected"}, {"measurement": "Drug metabolism", "setting": "Rattus norvegicus [4]", "value": "metabolite_detected"}, {"measurement": "ED50", "setting": "Rattus norvegicus [5]", "value": 9.9, "unit": "mg/kg"}, {"measurement": "Activity", "setting": "Rattus norvegicus [6]", "value": "Non-toxic"}, {"measurement": "Drug metabolism", "setting": "Rattus norvegicus [7]", "value": "metabolite_detected"}, {"measurement": "Drug metabolism", "setting": "Rattus norvegicus [8]", "value": "metabolite_detected"}]}, {"smiles": "CN1C(=O)C2CCCN2C(=O)c2ccccc21", "note": "(single isomer, unassigned; (-))", "values": [{"measurement": "ED50", "setting": "Rattus norvegicus [5]", "value": ">200", "unit": "mg/kg"}]}, {"smiles": "CNC1=Nc2ccc(Cl)cc2C(c2ccccc2)=[N+]([O-])C1", "note": "[CHLORDIAZEPOXIDE]", "values": [{"measurement": "ED50", "setting": "Rattus norvegicus [5]; [10]", "value": 2.5, "unit": "mg/kg"}, {"measurement": "Activity", "setting": "Rattus norvegicus [6]", "value": "Toxic"}]}, {"smiles": "CN1C(=O)C2CCCN2C(=O)c2ccccc21", "note": "(single isomer, unassigned; (+)) [listing 2 of 2 here]", "values": [{"measurement": "Activity", "setting": "Homo sapiens", "value": "inactive"}, {"measurement": "Activity", "setting": "Squirrel monkey", "value": "Active"}, {"measurement": "Activity", "setting": "Mus musculus", "value": "Active"}, {"measurement": "Activity", "setting": "Canis familiaris", "value": "Active"}, {"measurement": "Activity", "setting": "Rattus norvegicus [9]", "value": "Active"}]}, {"smiles": "O=C1Nc2ccccc2C(=O)N2CCCC12", "note": "(single isomer, unassigned; (+))", "values": [{"measurement": "ED50", "setting": "Rattus norvegicus [5]; [10]", "value": 35, "unit": "mg/kg"}]}, {"smiles": "CN1C(=O)C2CCCN2C(=O)c2ccccc21", "note": "(stereo in doubt; 2)", "values": [{"measurement": "ED50", "setting": "Rattus norvegicus [5]", "value": 20.2, "unit": "mg/kg"}]}, {"smiles": "O=C1Nc2ccc(F)cc2C(=O)N2CCCC12", "note": "(configuration not stated)", "values": [{"measurement": "ED50", "setting": "Rattus norvegicus [5]; [10]", "value": 23, "unit": "mg/kg"}]}, {"smiles": "CCCC(C)(COC(N)=O)COC(N)=O", "note": "[MEPROBAMATE]", "values": [{"measurement": "ED50", "setting": "Rattus norvegicus [5]; [10]", "value": 21.5, "unit": "mg/kg"}]}, {"smiles": "CN1C(=O)C2CCCN2C(=O)c2cc(F)ccc21", "note": "(single isomer, unassigned; (+))", "values": [{"measurement": "ED50", "setting": "Rattus norvegicus [5]; [10]", "value": 3.9, "unit": "mg/kg"}]}, {"smiles": "CN1C(=O)CN=C(c2ccccc2)c2cc(Cl)ccc21", "note": "[DIAZEPAM]", "values": [{"measurement": "Activity", "setting": "Rattus norvegicus [6]", "value": "Toxic"}]}]}
